According to patent US10894811B2, “Peptide inhibitors of calcium channels” (The University of North Carolina at Chapel Hill, priority 2016, dated 2021):
“Also recorded” adds a separate entry of the source.

Key:
[1] = test system: house dust mite-exposed mouse; assay: House dust mite allergy model, HDM-specific IgE by ELISA; assay type: in vivo; conditions: SPLUNC1−/− mice, HDM challenge; α6 peptide intranasally day 15 and day 16; serum on day 17
Procedure: Nasal instillation of α6 peptides to mice: SPLUNC1^(−/−) mice were exposed to 2 μg house dust mite extract in 40 μl of PBS intranasally on days 0 and day 7. After this time, they were again challenged intranasally with 20 μg HDM in 40 μl of PBS from day 14 to day 16. We Then 320 μM of the short α6 peptide was added intranasally once per day on day 15 and on day 16 and the animals sacrificed on day 17. Bronchoalveolar lavage total and differential cell counts were performed using a Kwik-Diff™ Stain Kit (Thermo Scientific). After sacrificing the animals, blood was obtained by cardiac puncture and plasma was taken by spinning down whole blood. Serum HDM-specific antibody levels were measured using an enzyme-linked immunosorbent assay (ELISA). Briefly, plates were coated overnight with 0.01% HDM in PBS and blocked with 1% BSA in PBS before the addition of serum samples that had been diluted 1:10 in blocking buffer and standards for 1 h. […] Plates were washed an additional six times, streptavidin-HRP (R&D Systems) was added for 30 min and the amount of bound HDM-specific antibody was determined using TMB substrate (Thermo Scientific). […] Using the same SPLUNC1^(−/−) mice/HDM challenge as described in FIG. 15, serum was obtained on day 17 and IgE measured by ELISA.

[2] = test system: house dust mite-exposed mouse; assay: House dust mite allergy model, bronchoalveolar lavage cell counts; assay type: in vivo; conditions: SPLUNC1−/− mice, HDM challenge, day 17
Procedure: Nasal instillation of α6 peptides to mice: SPLUNC1^(−/−) mice were exposed to 2 μg house dust mite extract in 40 μl of PBS intranasally on days 0 and day 7. After this time, they were again challenged intranasally with 20 μg HDM in 40 μl of PBS from day 14 to day 16. We Then 320 μM of the short α6 peptide was added intranasally once per day on day 15 and on day 16 and the animals sacrificed on day 17. Bronchoalveolar lavage total and differential cell counts were performed using a Kwik-Diff™ Stain Kit (Thermo Scientific). After sacrificing the animals, blood was obtained by cardiac puncture and plasma was taken by spinning down whole blood. Serum HDM-specific antibody levels were measured using an enzyme-linked immunosorbent assay (ELISA). Briefly, plates were coated overnight with 0.01% HDM in PBS and blocked with 1% BSA in PBS before the addition of serum samples that had been diluted 1:10 in blocking buffer and standards for 1 h. Plates were washed 6× with PBS containing 0.05% Tween-20 before incubation with biotinylated anti-mouse IgE (Pharmingen) at a concentration of 2 μg/ml for 1 h. Plates were washed an additional six times, streptavidin-HRP (R&D Systems) was added for 30 min and the amount of bound HDM-specific antibody was determined using TMB substrate (Thermo Scientific). To test whether α6 peptides were efficacious in vivo, a well-characterized murine allergy model was used, the house dust mite-exposed mouse (Wu T et al., Nature Communications, 2017). Since SPLUNC1^(−/−) mice have asthma-like symptoms including spontaneous inflammation and airway hyperreactivity (Wu T et al., Nature Communications, 2017; Thaikoottathil et al., Am. J. Respir. Cell Mol. Biol. 47:253 (2012)), SPLUNC1^(−/−) mice were exposed to 20 μg HDM intranasally on day 0 and […]. After this time, they were challenged with 20 μg HDM intranasally from day 14 to day 17. […] of the short α6 peptide was administered intranasally once per day on day 15 and on day 16 and sacrificed the animals were sacrificed on day 17. Bronchoalveolar lavage was performed and total and differential cell counts performed (FIG. 15).

[3] = test system: hASMCs; assay: Calcium imaging using fura-2 (thapsigargin-induced Ca2+ signaling); assay type: cell-based, human; conditions: for thapsigargin (TG)-induced Ca2+ flux (peak fura-2 ratio change): human ASMCs, co-incubated 1 h; for ability to suppress Ca2+ signaling, SPLUNC1 mutants/peptides: ASMCs pre-incubated with truncated SPLUNC1 peptides (FIG. 4H)
Procedure: Calcium imaging: Calcium imaging using fura-2 was adapted from a previous published protocol with minor modifications (Sheridan et al., J. Biol. Chem. 288:33509 (2013)). Briefly, hASMCs were loaded with 2 μM fura-2 AM (Invitrogen) and serosal media from HBEC cultures or recombinant SPLUNC1 at 37° C. for 1 h. Cultures were washed with a standard Ringer's solution (101 mM NaCl, 12 mM NaHCO3, 1.2 mM MgCl2, 1.2 mM CaCl2, […], 24 mM HEPES, 10 mM glucose, pH 7.4) or with Ca^2+-free Ringer's solution as indicated. Cultures were then placed in the Ringer's solution, and images were collected with a 40×1.4 NA oil objective on a Nikon Ti-S inverted microscope. Fura-2 fluorescence was acquired alternately at 340 and 380 nm (emission >450 nm) using LUDL filter wheels, obtained with an Orca FLASH 4.0 CMOS camera (Hammamatsu), and controlled with HCImageLive software. Cell bodies were identified as individual regions of interest (ROIs). Background subtraction was performed using a region without the cell. Signals were converted to relative changes (F/F0) where F0 was the ratio of the average fluorescent intensity (340/380) of ROIs at 0 time point. A total of 20 cells/coverslip were recorded. ΔF/F0 represents average peak fluorescent intensity changes of three independent experiments.

DITLVHDIVNMLIHG (listed as Homo sapiens) [SEQ ID NO:3, amino acids 235-249 of human SPLUNC1]
plasma (serum) HDM-specific IgE levels [1]: significantly reduced; also recorded: reduce blood IgE levels | eosinophil influx (bronchoalveolar lavage) ([2]; peptide 320 μM / 320 μM intranasally once per day on day 15 and day 16): decreased | bronchoalveolar lavage total cell count ([2]; peptide 320 μM / 320 μM intranasally once per day on day 15 and day 16, listed as short α6 peptide): significantly reduced | bronchoalveolar lavage total cell count ([2]; peptide 320 μM / 320 μM intranasally once per day on day 15 and day 16, listed as α6 peptide): reduce inflammatory cell counts | neutrophil influx (bronchoalveolar lavage) ([2]; peptide 320 mM / 320 μM intranasally once per day on day 15 and day 16): decreased

DITLVHDIVNMLIHGLQFVIKV (listed as Homo sapiens) [SEQ ID NO:2, amino acids 235-256 of human SPLUNC1]
thapsigargin (TG)-induced Ca2+ flux (peak fura-2 ratio change) [3]: inhibited | thapsigargin (TG)-induced Ca2+ flux (peak fura-2 ratio change) ([3]; listed as SPLUNC1 derived peptide): inhibits thapsigargin-induced Ca^2+ release

S18: N-terminal S18 region of SPLUNC1, its ENaC regulatory domain; synthesized peptide (GGLPVPLDQTLPLNVNPA) [reference compound]
ability to suppress Ca2+ signaling, SPLUNC1 mutants/peptides [3]: did not inhibit SOCE

B1: mouse SPLUNC1: mouse SPLUNC1 protein (protein)
chain: QLAGLPLPLGQGPPLPLNQGPPLPLNQGQLLPLAQGLPLAVSPALPSNPTDLLAGKFTDALSGGLLSGGLLGILENIPLLDVIKSGGGNSNGLVGGLLGKLTSSVPLLNNILDIKITDPQLLELGLVQSPDGHRLYVTIPLGLTLNVNMPVVGSLLQLAVKLNITAEVLAVKDNQGRIHLVLGDCTHSPGSLKISLLNGVTPVQSFLDNLTGILTKVLPELIQGKVCPLVNGILSGLDVTLVHNIAELLIHGLQFVIKV
ability to suppress Ca2+ signaling, SPLUNC1 mutants/peptides [3]: Inhibition was not different
